Source: US9061984B2 (University of Louisville Research Foundation, Inc., priority 2008, dated 2015)
Converted amounts (≈) assume the structure as drawn. Where two headings read alike, the source gives them in different places.

Tests used:
M. tuberculosis H37Rv = experiment: Conventional aerobic (MABA) culture assay, luminescence MIC; assay type: cell-based, Mycobacterium tuberculosis; conditions: aerobic, 7 days, H37Rv
HT-29 cells = experiment: Cell growth inhibition bioassay (sulforhodamine B); assay type: cell-based, human; conditions: 48 h, SRB
In short: (§1)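 Cells were exposed to compound alongside matched solvent controls, then stained with sulforhodamine B. Percent growth inhibition was calculated from dye absorbance against the control.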

H460 cells = experiment: Cell growth inhibition bioassay (sulforhodamine B); assay type: cell-based, human; conditions: 48 h, SRB
In short: as §1

DU145 cells = experiment: Cell growth inhibition bioassay (sulforhodamine B); assay type: cell-based, human; conditions: 48 h, SRB
In short: as §1

M-14 cells = experiment: Cell growth inhibition bioassay (sulforhodamine B); assay type: cell-based, human; conditions: 48 h, SRB
In short: as §1

MCF-7 cells = experiment: Cell growth inhibition bioassay (sulforhodamine B); assay type: cell-based, human; conditions: 48 h, SRB
In short: as §1

K562 cells = experiment: Cell growth inhibition bioassay (sulforhodamine B); assay type: cell-based, human; conditions: 48 h, SRB
In short: as §1

VERO cells [1] = experiment: Cell growth inhibition bioassay (sulforhodamine B); assay type: cell-based, African Green Monkey; conditions: 48 h, SRB
In short: as §1

peritoneal macrophages = experiment: Toxicity to peritoneal macrophages (Trypan Blue count); assay type: cell-based, BALB/C mouse
VERO cells [2] = experiment: Cytotoxicity on VERO cells (MTT), anti-T. cruzi study; conditions: Lab B
3T3 cells = experiment: Cell growth inhibition bioassay (sulforhodamine B); assay type: cell-based, mouse
In short: as §1

VERO cell = experiment: Cytotoxicity VERO cell (Table 6); conditions: Table 6
[3] = tested on: axenic amastigotes of L. amazonensis (strain MHOM/BR/76/LTB-012); conditions: read-out: L. amazonensis IC50; Table 8b
[4] = biological target: Trypanosoma cruzi (Tulahuen C4); experiment: In vitro anti-T. cruzi activity (β-galactosidase CPRG colorimetric assay in VERO monolayer); assay type: cell-based

Structure (SMILES) | MIC MABA (M. tuberculosis H37Rv) [µg/mL] | GI50 in indicated cell line: HT-29 (HT-29 cells) [µg/mL] | GI50 in indicated cell line: H460 (H460 cells) [µg/mL] | GI50 in indicated cell line: DU145 (DU145 cells) [µg/mL] | GI50 in indicated cell line: M-14 (M-14 cells) [µg/mL] | GI50 in indicated cell line: MCF-7 (MCF-7 cells) [µg/mL] | GI50 in indicated cell line: K562 (K562 cells) [µg/mL] | GI50 in indicated cell line: VERO (VERO cells [1]) [µg/mL] | IC50 (peritoneal macrophages) [µM] | Cytotoxicity VERO Lab B (VERO cells [2]) | GI50 in indicated cell line: 3T3 (3T3 cells; 48 h, SRB) [µg/mL] | Cytotoxicity VERO cell (VERO cell) [µg/mL] | IC50 [3] [µM] | T. cruzi IC50 Lab A [4] [µg/mL] | T. cruzi IC50 Lab B [4] [µg/mL] | IC50 (peritoneal macrophages; Table 8b, read-out: Cytotoxicity Macrophages IC50) [µM] | GI50 in indicated cell line: 3T3 (3T3 cells) [µg/mL]
C(=Cc1ccccc1)C=NNc1ncnc2sc3c(c12)CCCC3 [II-04] | 11.7 (≈ 35 µM) | 2.7 (≈ 8.07 µM) | 0.7 (≈ 2.09 µM) | 1.8 (≈ 5.38 µM) | 1.6 (≈ 4.78 µM) | 0.7 (≈ 2.09 µM) | 0.5 (≈ 1.5 µM) | 0.6 (≈ 1.79 µM) | 0.6 | 7.0 | 1.5 (≈ 4.49 µM) | 1.2 | 5.5 | 0.4 | 0.5 |  | 
Fc1ccc(C=NNc2ncnc3sc4c(c23)CCCC4)cc1 [II-26] | 23.2 (≈ 71.1 µM) | 3.4 (≈ 10.4 µM) | 3.1 (≈ 9.5 µM) | 4.5 (≈ 13.8 µM) | 5.7 (≈ 17.5 µM) | 2.4 (≈ 7.35 µM) | 2.9 (≈ 8.88 µM) | 4.2 (≈ 12.9 µM) | 3.1 | 6.0 | 6.7 (≈ 20.5 µM) | 12.8 | 3.2 | 1.9 | 6.0 |  | 
CC(C)(C)C=NNc1ncnc2sc3c(c12)CCCC3 [II-36] | 86.3 (≈ 299 µM) | 9.5 (≈ 32.9 µM) | 7.1 (≈ 24.6 µM) | 7.2 (≈ 25 µM) | 9.4 (≈ 32.6 µM) | 7.5 (≈ 26 µM) | 7.9 (≈ 27.4 µM) | 9.7 (≈ 33.6 µM) | 50.7 |  | 2.1 (≈ 7.28 µM) | 29.6 | 32.5 | 5.3 |  |  | 
NNc1ncnc2sc3c(c12)CCCC3 [PC] | 82.5 (≈ 374 µM) | 4.6 (≈ 20.9 µM) | 2.1 (≈ 9.53 µM) | 3.1 (≈ 14.1 µM) | 5.4 (≈ 24.5 µM) | 2.0 (≈ 9.08 µM) | 2.4 (≈ 10.9 µM) | 2.5 (≈ 11.3 µM) |  | 9.0 |  | 26.9 | 12 | 4.1 | 4.7 | 7.4 | <0.98
